Patent publication US10517854B2, “Dosing regiments of celgosivir for the treatment of dengue” (60 Degrees Pharmaceuticals, LLC, priority 2013, dated 2019)
Where two headings read alike, the source gives them in different places.

How the values were obtained:
DENV2 (TSV01 strain) = assay: Cell-based flaviviral immunodetection assay (CFI), DENV2; conditions: Dengue virus, DENV2, BHK-21, 48 h, DENV2, BHK21 cells
Protocol: BHK21 cells were seeded at 1.3×104 in 96-well plate and incubated overnight at 37° C. in 5% CO2 incubator. Confluent monolayer of BHK21 cells were infected with DENV2 (TSV01 strain) at an MOI (multiplicity of infection) 0.3 in the presence of various concentrations of test compounds and incubated for 1 hour at 37° C. in 5% CO2 incubator. Infected cells were incubated with test compounds for another 48 hours at 37° C. in 5A CO2. Cells were fixed with methanol and mouse monoclonal antibody 4G2 was used to detect DENV E protein, which was quantified using a secondary anti-mouse antibody conjugated with horseradish peroxidase (HRP). Absorbance was read at 450 nm and dose-response curve was plotted accordingly. The 50% effective concentration (EC50), that is, the concentration of the test compound that decreased the level of viral E protein production by 50%, was calculated by nonlinear regression analysis.

[1] = tested on: DENV2 in THP-1 human monocytes; assay: ADE infection of human monocytes (THP-1), plaque assay; format: cell-based; conditions: Dengue virus, THP-1, DENV2 + 4G2 antibody, 48 hours, read-out: EC50, suppression of viral replication under ADE condition
Protocol: The activity of celgosivir in infected human monocytes, one of the primary circulating cell types infected by dengue virus, was examined, THP-1 cells were grown in RPMI-1640 maintenance medium containing 10% fetal calf serum and 1% Penicillin-streptomycin and cultured in 37° C. incubator supplemented with 5% CO2. For ADE infection in THP-1 cells, virus (DENV2, MOI-10) was mixed with sub-neutralizing concentration of humanized 4G2 monoclonal antibody (0.05 μg/0.5 ml) and allowed to incubate on ice for 1 hr in the serum free medium, to allow immune complex formations. The immune complex was then added on to THP-1 (1×10^5) cells per well in a 24 well plate and further incubated for 2 hours at 37° C. incubator. An excess unbound immune complex was then removed by spinning cells at 1000 rpm for 5 min and then cells were supplemented with complete growth maintenance medium. For drug testing in the ADE condition, cells were mock (untreated) or celgosivir-treated for 48 hours, and finally media supernatant was collected for plaque assay analysis.

[2] = Population PK in dengue fever patients (NONMEM, predicted NCA parameters); format: in vivo, human; conditions: 400 mg loading dose then 200 mg every 12 hours for 9 doses
Protocol: Population pharmacokinetic (PK) analysis of castanospermine plasma concentration data after administration of celgosivir was performed using the non-linear mixed effects modelling software NONMEM (version 7.2.0). (16) Pharmacokinetic parameters were estimated using the first order conditional estimation method (FOCE) with eta-epsilon interaction. Due to limited data during the input phase, first-order absorption/formation of castanospermine was assumed. Between-subject variability was assumed to be log-nomally distributed. Model development was guided by objective function value (OFV), precision of the parameter estimates, inspection of standard goodness of lit plots and scientific plausability. The emperical Bayes estimates from the final model were used to predict individual concentrations for a standard saturated sampling design (i.e., samples collected at 0, 0.25, 0.5, 1, 1.5, 2, 4, 6 and 12 hours post-dose)) after the first dose (400 mg) and dose 9 (day 5; 200 mg). […] The NCA parameter values were derived using the statistical analysis software R (version 3.0.1). (17) NCA parameters after dose 9 were only determined for subject who received this dose. […]

[3] = cited from earlier work
[4] = cited from earlier work; for AUCss / Cmin,ss / t1/2 / tmax: HIV-positive patients
[5] = cited from earlier work
[6] = radiolabeled castanospermine, PO or IV, within 24 hr
[7] = celgosivir 10 mg/day for 14 days
[8] = celgosivir 20 mg/day for 14 days
[9] = celgosivir 40 mg/day for 14 days
[10] = celgosivir 80 mg/day for 14 days
[11] = celgosivir 160 mg/day for 14 days
[12] = celgosivir 240 mg/day for 14 days
[13] = celgosivir 360 mg/day for 14 days
[14] = celgosivir 450 mg/day for 14 days

O[C@H]1[C@H](O)[C@@H](O)CN2CC[C@H](O)[C@H]12 [Castanospermine]
EC50 (DENV2 (TSV01 strain)): ~21 µM
EC50 [1]: 14 µM
variability in exposure between subjects [2]: small to moderate
mean Cmax in the portal vein ([3]; 400 mg/kg celgosivir PO): 105600 ng/mL
AUC 0-60 min ([3]; portal vein, 400 mg/kg celgosivir PO): 63900 ng·h/mL
route of excretion of radioactivity [3, 6]: majority of radioactivity was detected within urine
urinary radioactivity identified as castanospermine [3, 6]: more than 92%
AUCss [4, 7]: 1000 ng·h/mL
Cmin,ss [4, 7]: 8 ng/mL
t1/2 [4, 7]: 13 h
tmax [4, 7]: 0.7 h
AUCss [4, 8]: 1750 ng·h/mL
Cmin,ss [4, 8]: 11 ng/mL
t1/2 [4, 8]: 27 h
tmax [4, 8]: 1 h
AUCss [4, 9]: 3610 ng·h/mL
Cmin,ss [4, 9]: 23 ng/mL
t1/2 [4, 9]: 30 h
tmax [4, 9]: 1 h
AUCss [4, 10]: 6530 ng·h/mL
Cmin,ss [4, 10]: 29 ng/mL
t1/2 [4, 10]: 16 h
tmax [4, 10]: 0.3 h
AUCss [4, 11]: 13300 ng·h/mL
Cmin,ss [4, 11]: 70 ng/mL
t1/2 [4, 11]: 21 h
tmax [4, 11]: 0.8 h
AUCss [4, 12]: 21500 ng·h/mL
Cmin,ss [4, 12]: 110 ng/mL
t1/2 [4, 12]: 16 h
tmax [4, 12]: 0.6 h
AUCss [4, 13]: 32100 ng·h/mL
Cmin,ss [4, 13]: 179 ng/mL
t1/2 [4, 13]: 15 h
tmax [4, 13]: 0.7 h
AUCss [4, 14]: 39800 ng·h/mL
Cmin,ss [4, 14]: 191 ng/mL
t1/2 [4, 14]: 14 h
excretion and metabolites ([4]; humans): excreted unchanged in the urine, with no other metabolites detected
gastrointestinal effects ([5]; 2 g/kg, sucrose- and starch containing diets): severe diarrhea and high intestinal bacterial counts
GI toxicity ([5]; diet of proteins, vitamins and glucose without sucrose or complex carbohydrates): ameliorated
